Experimental data: ChEMBL document CHEMBL1121822, “Sulfonate analogues of adenosine nucleotides as inhibitors of nucleotide-binding enzymes” (J Med Chem, 1981)

Biological target: Alcohol dehydrogenase (Equus caballus, UniProt P00327+P00328)
Test: Inhibition constant was evaluated against horse liver alcohol dehydrogenase

| Inhibition constant [mM] | Compound |
| --- | --- |
| 0.038 | Nc1ncnc2c1ncn2[C@@H]1O[C@H](COP(=O)(O)O)[C@@H](O)[C@H]1O [ADENOSINE PHOSPHATE] |
| 0.18 | Nc1ncnc2c1ncn2C1O[C@H](CS(=O)(=O)O)[C@@H](O)[C@H]1O (stereo partly specified) |
| 4.3 | Nc1ncnc2c1ncn2CCS(=O)(=O)O |
| 0.44 | COP(=O)(O)OC[C@H]1OC(n2cnc3c(N)ncnc32)[C@H](O)[C@@H]1O (stereo partly specified) |
| 4.9 | Nc1ncnc2c1ncn2CCCS(=O)(=O)O |
| 1.2 | Nc1ncnc2c1ncn2C1O[C@H](CO)[C@H](S(=O)(=O)O)[C@H]1O (stereo partly specified) |
